Test results published in patent US11390603B2, “Crystalline forms of a biphenyl compound” (THERAVANCE BIOPHARMA R&D IP, LLC, priority 2005, dated 2022).

Columns and labels:
[1] = biological target: T1, M3 muscarinic receptor subtype (Homo sapiens, UniProt P20309); assay: Radioligand binding assay ([3H]-NMS displacement); settings: CHO cell membranes, [3H]-NMS at 1 nM; tested in this or a similar assay
T1 construct: expressed in transfected cells
Protocol: CHO cell lines stably expressing cloned human hM1, hM2, hM3 and hM4 muscarinic receptor subtypes, respectively, were grown to near confluency in medium consisting of HAM's F-12 supplemented with 10% FBS and 250 μg/mL Geneticin. The cells were grown in a 5% CO2, 37° C. incubator and lifted with 2 mM EDTA in dPBS. Cells were collected by 5 minute centrifugation at 650×g, and cell pellets were either stored frozen at −80° C. or membranes were prepared immediately. For membrane preparation, cell pellets were resuspended in lysis buffer and homogenized with a Polytron PT-2100 tissue disrupter (Kinematica AG; 20 seconds×2 bursts). Crude membranes were centrifuged at 40,000×g for 15 minutes at 4° C. […] The protein concentration of the membrane suspension was determined by the method described in Lowry, O. et al., Journal of Biochemistry 193:265 (1951). […]
Radioligand binding assays were performed in 96-well microtiter plates in a total assay volume of 100 μL. […] Filter plates were rinsed three times with wash buffer (10 mM HEPES) to remove unbound radioactivity. […] The plates were then counted in a PerkinElmer Topcount liquid scintillation counter (PerkinElmer Inc., Wellesley, Mass.). Binding data were analyzed by nonlinear regression analysis with the GraphPad Prism Software package (GraphPad Software, Inc., San Diego, Calif.) using the one-site competition model. […]

guinea pigs = assay: Duration of bronchoprotection in guinea pig model of acetylcholine-induced bronchoconstriction; assay type: in vivo; settings: 1.5 hours post-dose, inhalation
Protocol: Groups of six male guinea pigs (Duncan-Hartley (HsdPoc:DH) Harlan, Madison, Wis.) weighing between 250 and 350 g are individually identified by cage cards. Throughout the study animals are allowed access to food and water ad libitum.
Test compounds are administered via inhalation over 10 minutes in a whole-body exposure dosing chamber (R&S Molds, San Carlos, Calif.). The dosing chambers are arranged so that an aerosol was simultaneously delivered to 6 individual chambers from a central manifold. Guinea pigs are exposed to an aerosol of a test compound or vehicle (WFI). […] This is measured gravimetrically by comparing pre-and post-nebulization weights of the filled nebulizer.
The bronchoprotective effects of test compounds administered via inhalation are evaluated using whole body plethysmography at 1.5, 24, 48 and 72 hours post-dose.
Forty-five minutes prior to the start of the pulmonary evaluation, each guinea pig is anesthetized with an intramuscular injection of ketamine (43.75 mg/kg), xylazine (3.50 mg/kg) and acepromazine (1.05 mg/kg). […] The depth of anesthesia is monitored and adjusted if the animal responds to pinching of its paw or if the respiration rate is greater than 100 breaths/minute. […]
Starting this program initiates the experimental protocol and data collection. […] By integrating this signal over time, a measurement of […] is calculated for each breath. […]

T1 sequence (P20309 whole entry): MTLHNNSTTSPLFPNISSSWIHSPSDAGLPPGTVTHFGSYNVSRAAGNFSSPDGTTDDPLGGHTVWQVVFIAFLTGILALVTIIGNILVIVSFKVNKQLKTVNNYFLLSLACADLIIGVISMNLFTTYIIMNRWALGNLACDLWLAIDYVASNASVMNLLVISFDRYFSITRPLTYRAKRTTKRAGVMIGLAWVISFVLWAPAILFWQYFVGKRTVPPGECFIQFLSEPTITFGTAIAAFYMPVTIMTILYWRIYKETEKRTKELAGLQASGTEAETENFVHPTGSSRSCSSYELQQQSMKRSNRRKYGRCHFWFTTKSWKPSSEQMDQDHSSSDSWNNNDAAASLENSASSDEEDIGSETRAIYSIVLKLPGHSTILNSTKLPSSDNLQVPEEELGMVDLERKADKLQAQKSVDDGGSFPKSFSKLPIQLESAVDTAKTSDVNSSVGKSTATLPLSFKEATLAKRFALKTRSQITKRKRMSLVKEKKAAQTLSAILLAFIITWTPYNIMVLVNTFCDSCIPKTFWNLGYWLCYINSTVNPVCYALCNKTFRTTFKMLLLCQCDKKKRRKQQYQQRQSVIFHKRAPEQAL

`CN(CCN1CCC(OC(=O)Nc2ccccc2-c2ccccc2)CC1)C(=O)c1ccc(CN2CCC(C(N)=O)CC2)cc1` [compound of formula I, biphenyl-2-ylcarbamic acid 1-(2-{[4-(4-carbamoylpiperidin-1-ylmethyl)benzoyl]methylamino}ethyl)piperidin-4-yl ester] was tested, and the Ki [1] was < 5 nM and the “PD2(50) for ACh-induced bronchoconstriction” value (guinea pigs) was “less than 200 μg/mL”.
